Among the data in PubChem BioAssay (NCI) are TGI values, retold here.

What all share (assay): NCI-60 cell line screen, 48 h
Assay [1] deals with SN12C renal.
Assay [2] concerns SF-268 CNS.
For assay [3], the system named is MDA-MB-231 breast.
For assay [4], the system named is UO-31 renal.
Assay [5] relates to NCI-H460 lung.
Assay [6] concerns KM12 colon.
Assay [7] concerns SK-MEL-2 melanoma.
Assay [8] concerns NCI-H23 lung.
The test system of assay [9] is OVCAR-8 ovarian.
In assay [10] the test system is SK-OV-3 ovarian.

Molecules are shown by their SMILES.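 The compound was tested at five concentrations on cells cultured in 96-well plates, with a 48-hour exposure period. At the TGI there is no net growth.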

In the case of `COc1cc(-c2[o+]c3cc(O)cc(OC4OC(CO)C(O)C(O)C4O)c3cc2OC2OC(CO)C(O)C(O)C2O)cc(OC)c1O` (stereo not given), the TGI in [1], in [2], in assay [3], in assay [4], in [5] and in assay [6] was over 100 µM throughout. Besides, the TGI in assay [7], in assay [8], in [9] and in assay [10] was over 100 µM each time.
Take `CCOC(=O)C1=C(C)N(c2ccc(C)cc2)C2(O)C=CC(=O)C3=C(O)c4ccccc4C(=O)C312` (stereo not given): the TGI was over 100 µM in [1]; over 100 µM in assay [2]; over 100 µM in assay [3]; 40 µM in assay [4]; over 100 µM in assay [5]; over 100 µM in assay [6]. Further, the TGI is 94.1 µM in [7], over 100 µM in [8], over 100 µM in assay [9] and over 100 µM in assay [10].
For `Cn1c(=O)c2[nH]c(CCC(=O)O)nc2n(C)c1=O`, the TGI in [1], in assay [2], in assay [3], in assay [4], in assay [5] and in [6] was over 100 µM each time. Moreover, the TGI in [7], in [8], in [9] and in assay [10] was over 100 µM in each case.
Consider `Cc1ccc([N+](=O)[O-])cc1NC(=O)C(=O)C1CCC2=C(Sc3ccccc3N2)C1=O` (stereo not given), for which the TGI in assay [1], in assay [2], in assay [3], in assay [4], in assay [5] and in assay [6] was over 100 µM in each case. Also, the TGI in [7], in assay [8], in assay [9] and in assay [10] was over 100 µM throughout.
For `O=C(NCc1cccnc1)C(=O)NCc1cccnc1`, the TGI in assay [1], in assay [2], in [3], in assay [4], in assay [5] and in assay [6] was over 100 µM each time. Also, the TGI in assay [7], in [8], in assay [9] and in [10] was over 100 µM throughout.
With `O=C1C(=Cc2ccccc2[N+](=O)[O-])N=C(c2ccccc2)N1n1c(-c2ccccc2)nc2ccccc2c1=O`, the TGI in assay [1] is 87.3 µM; in assay [2], over 100 µM; in assay [3], over 100 µM; in assay [4], over 100 µM; in [5], 99.1 µM; in [6] it was 66.2 µM. Also, the TGI is 88.2 µM in [7], 65 µM in assay [8], 78.7 µM in assay [9] and over 100 µM in assay [10].
`CC(C)c1nccn1Cc1ccc(Cl)cc1Cl`: the TGI in assay [1] was 88.7 µM; in assay [2], over 100 µM; in assay [3], over 100 µM; in assay [4], over 100 µM; in assay [5] it was over 100 µM; in [6] it was over 100 µM. Moreover, the TGI in assay [7], in assay [8], in assay [9] and in [10] was over 100 µM throughout.
`O=c1oc2ccccc2c(O)c1Cc1cccc(Cc2c(O)c3ccccc3oc2=O)c1`: the TGI in assay [1], in assay [2], in assay [3], in assay [4], in assay [5] and in assay [6] was over 100 µM in each case. Further, the TGI in assay [7], in [8], in assay [9] and in [10] was over 100 µM in each case.
Regarding `COc1ccc(C(C)NNC(=O)c2ccncc2)cc1F` (stereo not given), the TGI in [1], in assay [2], in assay [3], in assay [4], in [5] and in assay [6] was over 100 µM throughout. Also, the TGI in [7], in assay [8], in assay [9] and in assay [10] was over 100 µM throughout.
On to `CC1(C)CC(=O)C(=CN2C(=O)CNC2=S)C(=O)C1`, for which the TGI in assay [1], in assay [2], in assay [3], in [4], in assay [5] and in [6] was over 100 µM in each case. Besides, the TGI in assay [7], in assay [8], in assay [9] and in [10] was over 100 µM each time.
`Cc1cccc2c1C(=O)[C@@](C)([C@]1(C)Nc3cccc(C)c3C1=O)N2`: the TGI in [1], in [2], in assay [3], in [4], in assay [5] and in [6] was over 100 µM in each case. Also, the TGI in assay [7], in [8], in assay [9] and in assay [10] was over 100 µM throughout.
Consider `O=C(/C=C/c1ccccc1)CCc1c(O)c2ccccc2oc1=O`, for which the TGI in assay [1], in assay [2], in [3], in assay [4], in assay [5] and in assay [6] was over 100 µM in each case. In addition, the TGI in assay [7], in [8], in assay [9] and in assay [10] was over 100 µM in each case.
Regarding `O=C(NC/C=C/Br)NC1CCNc2ccccc21` (stereo not given), the TGI was over 100 µM in assay [1]; over 100 µM in assay [2]; over 100 µM in assay [3]; 62.6 µM in assay [4]; over 100 µM in assay [5]; over 100 µM in [6]. Moreover, the TGI in [7] was 86.8 µM; in assay [8], 55.4 µM; in assay [9] it was over 100 µM; in [10], over 100 µM.
As for `Nc1ccc(-c2nc3ccccc3s2)cc1`, the TGI in assay [1] is 43.5 µM; in assay [2], 31.4 µM; in [3] it was 31.9 µM; in assay [4] it was 28.9 µM; in assay [5] it was 43.1 µM; in [6] it was 47.6 µM. The TGI in assay [7] is 64.2 µM; in assay [8], 43.1 µM; in assay [9], 17.7 µM; in [10], over 100 µM.
`O=c1/c(=C/c2ccc(-c3ccc(Cl)cc3Cl)o2)sc2n1[C@@H](c1ccc3c(c1)OCO3)C=C(c1cc(F)c(Cl)cc1Cl)N=2`: the TGI is over 100 µM in assay [1]; over 100 µM in [2]; 57.2 µM in assay [3]; 95.1 µM in assay [4]; over 100 µM in assay [5]; over 100 µM in assay [6]. The TGI in assay [7] was 71.1 µM; in assay [8] it was over 100 µM; in assay [9], over 100 µM; in assay [10], 62.1 µM.
As to `COC(=O)C[C@H](CCSC)NC(=O)C[C@H](CCSC)NC(=O)C[C@H](CCSC)NC(=O)OC(C)(C)C`, the TGI in assay [1] is over 100 µM; in assay [2] it was 59.2 µM; in assay [3], over 100 µM; in assay [4] it was over 100 µM; in assay [5] it was over 100 µM; in assay [6], over 100 µM. Further, the TGI was 64.5 µM in assay [7], over 100 µM in [8], over 100 µM in assay [9] and 40 µM in assay [10].
`COc1ccc(C2NC(=O)Nc3c2c(=O)oc2c3ccc3ccccc32)cc1` (stereo not given): the TGI in [1], in assay [2], in [3], in assay [4], in assay [5] and in [6] was over 100 µM throughout. The TGI was 82.8 µM in [7], over 100 µM in assay [8], over 100 µM in assay [9] and over 100 µM in assay [10].
In the case of `COC(=O)C1[C@H](C(=O)OC)C1(Br)CBr` (stereo not given in full), the TGI in assay [1], in [2], in assay [3], in assay [4], in assay [5] and in [6] was over 100 µM in each case. For the same compound, the TGI in [7], in assay [8], in assay [9] and in assay [10] was over 100 µM in each case.
With `COC1=CC(=O)c2c(cc(COP(=O)(N(C)CCBr)N(C)CCBr)n2C)C1=O`, the TGI is 3.76 µM in [1]; over 38.2 µM in [2]; 15.3 µM in assay [3]; 2.52 µM in assay [4]; 9.44 µM in [5]; 24.1 µM in assay [6]. For the same compound, the TGI in [7] came out at 4.87 µM; in assay [8] it was 2.28 µM; in [9], 3.98 µM; in [10] it was 8.3 µM.
For `Cn1c(=O)c2sc3cc4c(cc3c2c2ccccc21)sc1c(=O)n(C)c2ccccc2c14`, the TGI was over 100 µM in [1]; over 100 µM in assay [2]; 36.8 µM in [3]; over 100 µM in [4]; over 100 µM in assay [5]; over 100 µM in [6]. Moreover, the TGI in [7], in assay [8], in assay [9] and in assay [10] was over 100 µM in each case.
As to `C=CCn1c(=O)c2ccccc2[n+]2c(-c3cccc([N+](=O)[O-])c3)csc12`, the TGI in assay [1], in [2], in [3], in assay [4], in assay [5] and in [6] was over 100 µM in each case. Moreover, the TGI in [7], in assay [8], in assay [9] and in assay [10] was over 100 µM in each case.
With `Cc1nnc2sc(-c3ccc([N+](=O)[O-])o3)nn12`, the TGI in [1] came to 29.5 µM; in assay [2], 27 µM; in assay [3], 29.2 µM; in [4] it was 32.6 µM; in assay [5] it was 49.4 µM; in assay [6], 33.5 µM. In addition, the TGI in assay [7] turned out to be 24.2 µM; in assay [8], 34.4 µM; in [9], 27.5 µM; in assay [10] it was 32.7 µM.
Take `N#Cc1c(-c2ccc(Cl)cc2)cc(-c2nc3ccccc3[nH]2)nc1N`: the TGI in assay [1] was determined as 27.5 µM; in assay [2], 34.6 µM; in [3], 26.8 µM; in assay [4] it was 21.9 µM; in assay [5], 21.6 µM; in [6], 25.1 µM. The TGI in [7] worked out at 25.9 µM; in assay [8], 35.3 µM; in assay [9], 49.5 µM; in [10] it was 77.4 µM.
